The values below come from patent US20050266997A1, “Flowering stimulant composition using nitrobenzene” (priority 2002, published 2005).

This assay deals with agricultural and horticultural crops. The conditions noted are these: Nitrobenzene in a suitable formulation, used as spray or in granular form.

`O=[N+]([O-])c1ccccc1` [Nitrobenzene] had an increasing flowers of 40 to 45%.
